Ki data for 32 compounds are collected here from US7964624B1, “Inhibitors of serine proteases” (priority 2005, dated 2011).

Where only a bound is given, the exact number is not on record here.

The experiment addresses T1, full-length hepatitis C viral protein NS3•4A (Hepatitis C virus genotype 1a, UniProt P27958).
T1 construct: hexa-histidine (N); made in house; host or cells: Sf9 insect cells (baculovirus, pVL1392)
As to the kind of experiment: biochemical. On the set-up: species or system HCV sub-type strain 1a. Conditions: Enzyme Assay 2 (HCV NS3 Peptide Cleavage Assay) activity, apparent Ki class.
In the case of `CCC[C@H](NC(=O)[C@@H]1C[C@]2(CC(c3cc(Cl)ccn3)=NO2)CN1C(=O)[C@@H](NC(=O)OC1CCCC1)C(C)(C)C)C(=O)C(=O)NC1CC1` [Compound 667], the Ki is less than 100 nM.

With `CNC(=O)C(=O)[C@H](CC1CC1)NC(=O)[C@@H]1C[C@]2(CC(c3cccc4cccnc34)=NO2)CN1C(=O)[C@@H](NC(=O)CC1CCCCC1)C(C)(C)C` [Compound 671], the Ki is 100 to 500 nM.

For `CCC[C@H](NC(=O)[C@@H]1C[C@]2(CC(c3cc(Cl)c4c(c3)OCCO4)=NO2)CN1C(=O)[C@@H](NC(=O)CC1CCCCC1)C(C)(C)C)C(=O)C(=O)NC` [Compound 674], the Ki is less than 100 nM.

`CNC(=O)C(=O)[C@H](CC1CC1)NC(=O)[C@@H]1C[C@]2(CC(c3cc(Cl)c4c(c3)OCCO4)=NO2)CN1C(=O)[C@@H](NC(=O)CC1CCCCC1)C(C)(C)C` [Compound 675]: the Ki is less than 100 nM.

Take `CCC[C@H](NC(=O)[C@@H]1C[C@]2(CC(c3cc(Cl)cc4c3OCOC4)=NO2)CN1C(=O)[C@@H](NC(=O)CC1CCCCC1)C(C)(C)C)C(=O)C(=O)NC1CC1` [Compound 676]: the Ki was less than 100 nM.

On to `CNC(=O)C(=O)[C@H](CC1CC1)NC(=O)[C@@H]1C[C@]2(CC(c3cc(Cl)cc4c3OCOC4)=NO2)CN1C(=O)[C@@H](NC(=O)CC1CCCCC1)C(C)(C)C` [Compound 677], for which the Ki was less than 100 nM.

On to `CCC[C@H](NC(=O)[C@@H]1C[C@]2(CC(c3cnc(OC)nc3OC)=NO2)CN1C(=O)[C@@H](NC(=O)OC1CCCC1)C(C)(C)C)C(=O)C(=O)NC1CC1` [Compound 678], for which the Ki fell in the range of 100 to 500 nM.

For the compound `CCC[C@H](NC(=O)[C@@H]1C[C@]2(CC(c3cc(Cl)ccc3OC)=NO2)CN1C(=O)[C@@H](NC(=O)OC1CCCC1)C(C)(C)C)C(=O)C(=O)NC1CC1` [Compound 686], the Ki was less than 100 nM.

Turning to `CNC(=O)C(=O)[C@H](CC1CC1)NC(=O)[C@@H]1C[C@]2(CC(c3cc(Cl)cc4c3OCO4)=NO2)CN1C(=O)[C@@H](NC(=O)OC(C)(C)C)C(C)(C)C` [Compound 691], the Ki is 100 to 500 nM.

For `CNC(=O)C(=O)[C@H](CC1CC1)NC(=O)[C@@H]1C[C@@]2(CC(c3nc(-c4ccccc4)no3)=NO2)CN1C(=O)[C@@H](NC(=O)OC1CCCC1)C(C)(C)C` [Compound 694], the Ki was in the range of 100 to 500 nM.

`CNC(=O)C(=O)[C@H](CC1CC1)NC(=O)[C@@H]1C[C@]2(CC(c3cccc(Cl)c3)=NO2)CN1C(=O)[C@@H](NC(=O)C1C[C@@H]1c1ccccc1)C(C)(C)C` (some centres unmarked) [Compound 695]: the Ki is less than 100 nM.

As for `CNC(=O)C(=O)[C@H](CC1CC1)NC(=O)[C@@H]1C[C@]2(CC(c3cccc(Cl)c3)=NO2)CN1C(=O)[C@@H](NC(=O)[C@@H]1C[C@H]1c1ccccc1)C(C)(C)C` [Compound 696], the Ki was less than 100 nM.

Take `CCC[C@H](NC(=O)[C@@H]1C[C@]2(CC(c3cccc(Cl)c3)=NO2)CN1C(=O)[C@@H](NC(=O)[C@H]1C[C@@H]1c1ccccc1)C(C)(C)C)C(=O)C(=O)NC1CC1` [Compound 697]: the Ki was less than 100 nM.

On to `CC(C)(C)[C@H](NC(=O)[C@H]1C[C@@H]1c1ccccc1)C(=O)N1C[C@@]2(CC(c3cccc(Cl)c3)=NO2)C[C@H]1C(=O)N[C@@H](CC1CC1)C(=O)C(N)=O` [Compound 699], for which the Ki is less than 100 nM.

`CCC[C@H](NC(=O)[C@@H]1C[C@]2(CC(c3cccc(Cl)c3)=NO2)CN1C(=O)[C@@H](NC(=O)OC1CCCCCC1)C(C)(C)C)C(=O)C(=O)NC1CC1` [Compound 706]: the Ki was less than 100 nM.

Regarding `COc1cc(C)c(C2=NO[C@]3(C2)C[C@@H](C(=O)N[C@@H](CC2CC2)C(=O)C(=O)NC2CC2)N(C(=O)[C@@H](NC(=O)CC2CCCCC2)C(C)(C)C)C3)cc1Cl` [Compound 709], the Ki is 100 to 500 nM.

For `CNC(=O)C(=O)[C@H](CC1CC1)NC(=O)[C@@H]1C[C@]2(CC(c3cccc(Cl)c3)=NO2)CN1C(=O)[C@@H](NC(=O)CC1CC2CCC1C2)C(C)(C)C` (some centres unmarked) [Compound 716], the Ki is less than 100 nM.

Consider `CCC[C@H](NC(=O)[C@@H]1C[C@]2(CC(c3cc(C)c(OC)c(C)c3)=NO2)CN1C(=O)[C@@H](NC(=O)CC1CCCCC1)C(C)(C)C)C(=O)C(N)=O` [Compound 724], for which the Ki is less than 100 nM.

`CNC(=O)C(=O)[C@H](CC1CC1)NC(=O)[C@@H]1C[C@]2(CC(c3cc(C)c(OC)c(C)c3)=NO2)CN1C(=O)[C@@H](NC(=O)CC1CCCCC1)C(C)(C)C` [Compound 725]: the Ki was less than 100 nM.

As for `COc1c(C)cc(C2=NO[C@]3(C2)C[C@@H](C(=O)N[C@@H](CC2CC2)C(=O)C(N)=O)N(C(=O)[C@@H](NC(=O)CC2CCCCC2)C(C)(C)C)C3)cc1C` [Compound 726], the Ki is less than 100 nM.

As to `CCC[C@H](NC(=O)[C@@H]1C[C@]2(CC(c3cc(C)c(OC)c(C)c3)=NO2)CN1C(=O)[C@@H](NC(=O)CC1CCCCCC1)C(C)(C)C)C(=O)C(N)=O` [Compound 728], the Ki was less than 100 nM.

`COc1c(C)cc(C2=NO[C@]3(C2)C[C@@H](C(=O)N[C@@H](CC2CC2)C(=O)C(N)=O)N(C(=O)[C@@H](NC(=O)CC2CCCCCC2)C(C)(C)C)C3)cc1C` [Compound 730]: the Ki was less than 100 nM.

For the compound `CCC[C@H](NC(=O)[C@@H]1C[C@]2(CC(c3cc(C)c(OC)c(C)c3)=NO2)CN1C(=O)[C@@H](NC(=O)CC(C)(C)C)C(C)(C)C)C(=O)C(N)=O` [Compound 733], the Ki was less than 100 nM.

For the compound `CNC(=O)C(=O)[C@H](CC1CC1)NC(=O)[C@@H]1C[C@]2(CC(c3cccc(Cl)c3)=NO2)CN1C(=O)[C@@H](NC(=O)[C@H]1C[C@@H]1c1cccs1)C(C)(C)C` [Compound 739], the Ki is less than 100 nM.

In the case of `CNC(=O)C(=O)[C@H](CC1CCC1)NC(=O)[C@@H]1C[C@]2(CC(c3cccc(Cl)c3)=NO2)CN1C(=O)[C@@H](NC(=O)CC1CCCCC1)C(C)(C)C` [Compound 741], the Ki is less than 100 nM.

As to `CNC(=O)C(=O)[C@H](CC1CC1)NC(=O)[C@@H]1C[C@]2(CC(c3cc(Cl)c(OC)cc3OC)=NO2)CN1C(=O)[C@@H](NC(=O)OC1CCCC1)C(C)(C)C` [Compound 744], the Ki was less than 100 nM.

Take `COc1cc(OC)c(C2=NO[C@]3(C2)C[C@@H](C(=O)N[C@@H](CC2CC2)C(=O)C(=O)NC2CC2)N(C(=O)[C@@H](NC(=O)OC(C)(C)C)C(C)(C)C)C3)cc1Cl` [Compound 745]: the Ki was less than 100 nM.

For `CNC(=O)C(=O)[C@H](CC1CC1)NC(=O)C1C[C@]2(CC(c3cccc(Cl)c3)=NO2)CN1C(=O)[C@@H](NC(=O)C1CCC1)C(C)(C)C` (some centres unmarked) [Compound 749], the Ki was less than 100 nM.

As for `CNC(=O)C(=O)[C@H](CC1CC1)NC(=O)[C@@H]1C[C@]2(CC(c3cccc(Cl)c3)=NO2)CN1C(=O)[C@@H](NC(=O)[C@H]1C[C@@H]1C(C)C)C(C)(C)C` [Compound 755], the Ki was less than 100 nM.

With `COc1c(C)cc(C2=NO[C@]3(C2)C[C@@H](C(=O)N[C@@H](CC2CC2)C(=O)C(=O)NC2CC2)N(C(=O)[C@@H](NC(=O)OC(C)(C)C)C(C)(C)C)C3)cc1C` [Compound 757], the Ki was less than 100 nM.

Consider `CCC[C@H](NC(=O)[C@@H]1C[C@]2(CC(c3cc(C)c(OC)c(C)c3)=NO2)CN1C(=O)[C@@H](NC(=O)OC1CCCC1)C(C)(C)C)C(=O)C(N)=O` [Compound 760], for which the Ki was less than 100 nM.

For `COc1c(C)cc(C2=NO[C@]3(C2)C[C@@H](C(=O)N[C@@H](CC2CC2)C(=O)C(=O)NC2CC2)N(C(=O)[C@@H](NC(=O)CC2CCCCC2)C(C)(C)C)C3)cc1C` [Compound 764], the Ki lay within 100 to 500 nM.
